Experimental data from US20250361307A1, “COMBINATION THERAPIES FOR TREATING HYPERPROLIFERATIVE DISORDERS” (X4 Pharmaceuticals, Inc., priority 2022, published 2025).
Blank lines part the entries; values can stand above or below the compound they belong to.

Experiments:
BCL-2 = BCL-2 (Homo sapiens, UniProt P10415); conditions: cited from earlier work
BCL-XL = BCL-XL (Homo sapiens, UniProt Q07817); conditions: cited from earlier work
BCL-w = molecular target: T1, BCL-w (Homo sapiens, UniProt Q92843); conditions: cited from earlier work
T1 sequence (Q92843 1-193): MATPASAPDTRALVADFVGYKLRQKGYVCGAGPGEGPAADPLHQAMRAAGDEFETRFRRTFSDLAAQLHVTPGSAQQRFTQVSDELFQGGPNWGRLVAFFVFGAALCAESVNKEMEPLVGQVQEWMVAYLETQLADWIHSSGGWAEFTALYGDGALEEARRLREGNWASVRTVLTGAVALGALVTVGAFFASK

MWCL-1 cells [1] = assay: IL-6-mediated IgM secretion in MWCL-1 cells (ELISA); type: cell-based; conditions: exogenous IL-6 (FIG. 1F)
Description: (§1) The IgM levels were quantitated using a human IgM Enzyme-linked immunosorbent assay (ELISA) kit (Abcam, #ab214568) according to the manufacturer's instructions. IL-6 levels were quantitated using an IL-6 ELISA MAX™ kit (BioLegend, #430515) per manufacturer's recommendations. For all ELISA kits, plates were developed with 3,3′,5,5′-tetramethylbenzidine (TMB) development solution or a biotinylated antihuman IL-6 detection antibody/avidin horseradish peroxidase (HRP) solution. The reaction was stopped with the stop solution, and absorbance was read at 450 nm with a microplate reader (Synergy™ HT, BioTek Instruments).

MWCL-1 cells [2] = assay: Apoptosis of MWCL-1 cells in monoculture (Annexin V flow cytometry); type: cell-based
Description: BMSCs were cultured in 96-, 48-, or 24-well plates until 90% confluence. […] Cells were coincubated for 48 or 72 hours followed by measurement of cell viability, apoptosis, IgM, and IL-6 release.
(§2) Cells were washed with PBS, resuspended in Annexin V binding buffer (BioLegend, #422201), and stained with Alexa Fluor® 647 Annexin V (BioLegend, #640943), propidium iodide (BD Pharmingen, #51-66211E), and CD45 antibody (BioLegend, #368502) for 15 minutes at room temperature and analyzed by flow cytometry.

MWCL-1 cells [3] = assay: Apoptosis of MWCL-1 cells in coculture with HS-27A BMSCs; type: cell-based; conditions: for % apoptotic cells: with BMSC (HS-27a) (FIG. 13A)
Description: (§3) BMSCs were cultured in 96-, 48-, or 24-well plates until 90% confluence. MWCL-1 cells (density≈2×10^5 cells/mL) were pretreated with indicated concentration of mavorixafor together with indicated concentrations of B-cell-targeted inhibitors in medium containing 4% FBS for 1 hour and transferred to the BMSC monolayer. Cells were coincubated for 48 or 72 hours followed by measurement of cell viability, apoptosis, IgM, and IL-6 release.
as §2

MWCL-1 cells [4] = assay: Sensitivity of MWCL-1 cells in coculture with HS-5 BMSCs (apoptosis, IgM); type: cell-based; conditions: HS-5 BMSC coculture vs monoculture (FIG. 10A-D)
Description: as §3, §1, §2

ALL cells = conditions: cited from earlier work
HS-27A and HS-5 BMSCs = assay: Apoptosis of BMSCs cocultured with WM cells; type: cell-based; conditions: WM cell-BMSC coculture, mavorixafor alone (FIG. 11A-B)
Description: as §2, with “BMSCs were cultured in 96-, 48-, or 24-well plates until 90% confluence. […] Cells were coincubated for 48 or 72 hours followed by measurement of cell viability, apoptosis, IgM, and IL-6 release. Cells” for “Cells”

MWCL-1 cells [5] = assay: Transwell migration assay; type: cell-based
Description: Cell migration toward CXCL12 gradient or BMSC monolayer was determined using the Transwell migration assay. MWCL-1 cells were stained with 500 nM Calcein AM (Invitrogen, #C1430) and preincubated with mavorixafor for 15 minutes before transfer (5×10^5 cells) to an upper well of a […] pore size Transwell® (Corning, #3421). […] Wells without CXCL12 were treated with 10 μM LIT-927 (Selleck Chemicals, #S8813), a neutraligand of CXCL12, to serve as background control. After 4 hours of incubation, cells that migrated to the lower chambers were collected and resuspended in Dulbecco's phosphate-buffered saline (DPBS) containing Precision Count Beads™ (BioLegend, #424902). Migrated cells and counting beads were counted by flow cytometry

[6] = system: cleavage of caspase-3 and PARP in MWCL-1 cells; assay: Immunoblotting of apoptotic markers; type: cell-based; conditions: MWCL-1 monoculture (FIG. 4G)
Description: Whole cells were lysed by radioimmunoprecipitation assay (RIPA) lysis buffer (Sigma-Aldrich, #R0278) with protease inhibitor cocktail (Roche Custom Biotech, #11697498001). Lysates were separated by sodium dodecyl sulfate polyacrylamide gel-electrophoresis (SDS-PAGE) electrophoresis and transferred to Trans-Blot® Turbo™ Mini PVDF Transfer Packs (Bio-Rad). Membranes were incubated with primary antibodies: anti-poly adenosine diphosphate (ADP)-ribose polymerase (PARP) (1:1000, Cell Signaling, #9542); Anti-Caspase 3 (1:1000, Cell Signaling, #9662) and antitubulin (1:5000, R&D, #MAB9344). Secondary HRP-conjugated antibodies (Abcam) were used at 1:10.000 dilution. Membranes were developed with enhanced chemiluminescence reagent (Amersham™ ECL Prime Western Blotting Detection Reagent, GE Healthcare) on LAS4000 gel documentation system.

[7] = system: CXCL12-induced Ca2+ mobilization in MWCL-1 cells; assay: Calcium mobilization assay (Fluo-4 AM); type: cell-based; conditions: dose-dependent (FIG. 3D)
Description: MWCL-1 cells (2×10^5 cells/well) were seeded in transparent bottom, black 96-well plates coated with poly-L-lysine (BioCoat®, Corning) and serum-starved (medium with 1% FBS) for 24 hours. Medium was removed and cells were loaded with 100 μL of fluo-4 AM (3 μM, Invitrogen, #F14201) dye solution for 45 minutes at 37° C. Subsequently, 100 μL of assay buffer alone or assay buffer with compound dilutions was added, and the plates were equilibrated in the plate reader for an additional 20 minutes at 37° C. The CXCL12 was injected with simultaneous measurement of fluorescent signal (FlexStation® 3 Multi-Mode Microplate Reader, Molecular Devices). Raw traces were analyzed in SoftMax®Pro 7 Software (Molecular Devices). The arbitrary units were calculated as the difference between maximal and minimal signal after treatment injection, normalized to the baseline signal before injection.

MWCL-1 cells [8] = assay: BMSC-induced IgM hypersecretion, MWCL-1/HS-27A coculture (ELISA); type: cell-based
Description: as §1, with “BMSCs were cultured in 96-, 48-, or 24-well plates until 90% confluence. […] Cells were coincubated for 48 or 72 hours followed by measurement of cell viability, apoptosis, IgM, and IL-6 release. The IgM” for “The IgM”

MWCL-1 cells [9] = assay: Adhesion assay of MWCL-1 cells to BMSC monolayer; type: cell-based; conditions: pretreatment, 4 hours (FIG. 3A)
Description: MWCL-1 cells were labeled with 1 μM Calcein AM. After 10 minutes at 37° C., cells were washed, resuspended in medium containing 1% FBS, and treated with compounds for 30 minutes (2.25× 10^5 cells/mL). MWCL-1 cells were transferred to the BMSC monolayer. After 4 hours, nonadherent cells were removed by gently washing with phosphate-buffered saline (PBS). Remaining cells were harvested, resuspended in flow buffer (Hanks balanced salt solution+20 mM HEPES+0.5% […]) and analyzed by flow cytometry.

WM cell-BMSC coculture = assay: IL-6 release in WM/BMSC coculture model (ELISA); type: cell-based; conditions: WM cell-BMSC coculture (FIG. 12)
Description: as §1, with “BMSCs were cultured in 96-, 48-, or 24-well plates until 90% confluence. […] Cells were coincubated for 48 or 72 hours followed by measurement of cell viability, apoptosis, IgM, and IL-6 release. The IgM” for “The IgM”

MWCL-1 cells [10] = assay: Cell viability of MWCL-1 cells (CellTiter-Glo); type: cell-based; conditions: tested concentrations, 4 hours, data not shown
[11] = Solubility of mavorixafor; type: physicochemical
[12] = Terminal half-life of mavorixafor; conditions: in vivo
[13] = patients with WHIM syndrome; cited from earlier work
BTK = molecular target: T2, BTK (Homo sapiens, UniProt Q06187); conditions: patients with relapsed/refractory CLL and other B-cell disorders; cited from earlier work
T2 construct: endogenous in cells
T2 sequence (Q06187 whole entry): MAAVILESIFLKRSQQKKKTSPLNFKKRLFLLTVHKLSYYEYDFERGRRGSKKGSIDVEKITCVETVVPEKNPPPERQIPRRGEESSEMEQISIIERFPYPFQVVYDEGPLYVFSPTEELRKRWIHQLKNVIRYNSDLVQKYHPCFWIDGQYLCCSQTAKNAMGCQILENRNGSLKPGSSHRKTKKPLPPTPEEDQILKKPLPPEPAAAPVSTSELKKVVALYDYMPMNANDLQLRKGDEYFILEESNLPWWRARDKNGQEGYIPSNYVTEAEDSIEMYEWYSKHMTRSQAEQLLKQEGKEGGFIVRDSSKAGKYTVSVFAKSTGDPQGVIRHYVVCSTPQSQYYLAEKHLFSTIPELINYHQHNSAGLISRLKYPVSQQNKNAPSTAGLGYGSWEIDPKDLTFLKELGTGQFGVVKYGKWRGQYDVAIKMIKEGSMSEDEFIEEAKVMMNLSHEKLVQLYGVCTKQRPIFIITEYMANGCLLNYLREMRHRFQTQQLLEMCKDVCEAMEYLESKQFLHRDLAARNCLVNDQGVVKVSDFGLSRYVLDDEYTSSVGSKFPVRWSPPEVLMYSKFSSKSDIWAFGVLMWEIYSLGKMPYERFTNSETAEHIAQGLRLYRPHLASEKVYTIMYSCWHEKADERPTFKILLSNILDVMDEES

[14] = system: CXCR4 cell surface expression in MWCL-1 cells; assay: CXCR4 cell surface expression in MWCL-1 cells (flow cytometry); type: cell-based; conditions: MWCL-1 cocultured with HS-27A BMSCs (FIG. 2B)
Description: Flow experiments were performed with the CytoFLEX S Flow Cytometer (Beckman Coulter). Samples were analyzed using FCS Express Software (De Novo Software).
[…] Cells were stained with CXCR4 antibody (BD Pharmigen, #555976) and measured by flow cytometry.

WM mouse xenograft = conditions: cited from earlier work
human WM cells = conditions: mouse, in vivo; cited from earlier work
[15] = absence of bone marrow stroma, 72 hours (FIG. 15)

Chain of BCL-XL (Q07817 whole entry): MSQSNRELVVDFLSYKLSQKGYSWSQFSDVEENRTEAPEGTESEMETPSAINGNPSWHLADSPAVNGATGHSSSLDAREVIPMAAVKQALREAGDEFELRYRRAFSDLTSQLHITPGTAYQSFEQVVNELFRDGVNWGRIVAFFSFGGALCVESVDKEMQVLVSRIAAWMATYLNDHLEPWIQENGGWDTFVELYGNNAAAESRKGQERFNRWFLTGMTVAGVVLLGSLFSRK
Chain of BCL-2 (P10415 whole entry): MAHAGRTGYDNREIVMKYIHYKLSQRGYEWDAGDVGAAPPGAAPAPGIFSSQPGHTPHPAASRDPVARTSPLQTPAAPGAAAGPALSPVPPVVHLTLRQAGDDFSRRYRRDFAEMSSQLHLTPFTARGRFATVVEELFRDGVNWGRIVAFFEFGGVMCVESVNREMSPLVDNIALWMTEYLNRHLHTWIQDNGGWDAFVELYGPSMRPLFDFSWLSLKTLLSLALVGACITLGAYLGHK

Compound: CN(C)CC[C@H](CSc1ccccc1)Nc1ccc(S(=O)(=O)NC(=O)c2ccc(N3CCN(Cc4ccccc4-c4ccc(Cl)cc4)CC3)cc2)cc1[N+](=O)[O-] [ABT-737]
binding affinity to BCL-2 (BCL-2): < 1 nmol/L | binding affinity to BCL-XL (BCL-XL): < 1 nmol/L | binding affinity to BCL-w (BCL-w): < 1 nmol/L

Compound: CN(CC(=O)N(Cc1ccc(C2CCCCC2)cc1)c1ccc(C(=O)O)c(O)c1)S(=O)(=O)c1c(F)c(F)c(F)c(F)c1F [BP-1-102]
IL-6-mediated IgM secretion (MWCL-1 cells [1]): inhibited

Compound: C=CC(=O)N1CCC[C@@H](n2nc(-c3ccc(Oc4ccccc4)cc3)c3c(N)ncnc32)C1 [Ibrutinib, 1-[(3R)-3-[4-amino-3-(4-phenoxyphenyl)-1Hpyrazolo[3,4-d]pyrimidin-1-yl]-1-piperidinyl]-2-propen-1-one, reference compound]
% apoptotic cells (MWCL-1 cells [2]; absence of BMSC (FIG. 13A)): approximately 60% | % apoptotic cells (MWCL-1 cells [3]): neither Ibrutinib nor Tocilizumab as a single therapy increased | sensitivity of MWCL-1 cells to the drug in HS-5 BMSC coculture (MWCL-1 cells [4]): reduced the sensitivity

Compound: CC(C)C[C@H](NC(=O)CNC(=O)c1cc(Cl)ccc1Cl)B(O)O [Ixazomib, reference compound]
killing / apoptosis of MWCL-1 tumor cells (MWCL-1 cells [2]; [15]): Kills

solubility ([11]; aqueous buffer, pH range 3.0 to 8.0): > 100 mg/mL | Solubility in water ([11]; water): only slightly soluble | half-life [12]: 12 to 24 h
Compound: NCCCCN(Cc1nc2ccccc2[nH]1)[C@H]1CCCc2cccnc21 [Mavorixafor]
CXCL12-induced signaling pathway in ALL cells (ALL cells): effectively block | preestablished adhesion of ALL cells to stroma (ALL cells): disrupt | sensitivity of ALL cells to vincristine and nilotinib (ALL cells): increase sensitivity | stromal-induced migration of ALL cells (ALL cells): block | apoptosis of BMSCs (HS-27A and HS-5 BMSCs): much weaker effects | apoptosis efficacy of ixazomib when mavorixafor is added (MWCL-1 cells [2]; [15]): Enhances | apoptosis of MWCL-1 cells, single agent (MWCL-1 cells [2]; monoculture (FIG. 8A-F, FIG. 4A-F)): minor increase | sensitivity of MWCL-1 cells to apoptosis by B-cell-targeted inhibitors in presence of BMSCs (MWCL-1 cells [3]; HS-27A BMSC coculture (FIG. 5A-F)): restored the sensitivity | migration toward BMSC-secreted CXCL12 (MWCL-1 cells [5]; HS-27A BMSCs in lower chamber (FIG. 3C)): significantly inhibited | migration toward a CXCL12 gradient (MWCL-1 cells [5]; pretreatment of MWCL-1 cells (FIG. 3B)): significantly inhibited | proteolytic cleavage of caspase-3 and PARP [6]: minor effects | CXCL12-mediated Ca2+ mobilization [7]: blocked | BM stroma-induced IgM hypersecretion, combination with ixazomib (MWCL-1 cells [8]; BMSC: HS-27A cells, 72 hours (FIG. 16)): Synergizes | BMSC-induced IgM hypersecretion (MWCL-1 cells [8]; HS-27A coculture, 48 or 72 hours (FIG. 6A-G)): inhibited | adhesion of WM cells to BMSCs (MWCL-1 cells [9]): dose-dependent decrease | IL-6 release (WM cell-BMSC coculture): no significant effect | cytotoxicity in MWCL-1 cells (MWCL-1 cells [10]): not sufficient to induce cytotoxicity | tolerability, treatment-related serious adverse events [13]: well tolerated, with no treatment-related serious adverse events

Compound: NC(=O)c1ncc(N2CCCCC2)nc1Nc1ccc(C2CCN(C[C@H]3CCN(c4ccc5c(c4)C(=O)N(C4CCC(=O)NC4=O)C5=O)C3)CC2)cc1 (stereo partly shown) [NX-2127]
degradation of BTK (BTK): clinically meaningful degradation

Compound: CCc1cc(O)c(F)cc1-c1ccc2c(-c3nc4c([nH]3)CCN(C(=O)c3cnc(N5CCCCC5)cn3)C4)n[nH]c2c1 [PF-06263276]
IL-6-mediated IgM secretion (MWCL-1 cells [1]): inhibited

Compound: Tocilizumab: IL-6R antibody tocilizumab (Actemra, Genentech)
increase of CXCR4 surface expression by HS-27A BMSC coculture [14]: inhibited | % apoptotic cells (MWCL-1 cells [3]): neither Ibrutinib nor Tocilizumab as a single therapy increased | IgM secretion (WM mouse xenograft): reduces | tumor growth (WM mouse xenograft): reduces | IL-6-mediated IgM secretion (MWCL-1 cells [1]): inhibited

Compound: ulocuplumab: monoclonal anti-CXCR4 antibody
tumor infiltration in BM, spleen, and lymph nodes (human WM cells): reduced
